Laboratory results: patent EP1826201A1, “Substituted phenylpiperidine derivatives as melanocortin-4 receptor modulators” (Santhera Pharmaceuticals (Schweiz) AG, priority 2006, dated 2007)

Columns and labels:
hMC-4R [1] = molecular target: T1, hMC-4R (Homo sapiens, UniProt P32245); test: Membrane binding assay (fluorescence polarization, competition with fluorescence labeled NDP-alpha-MSH); conditions: HEK293 cell membrane preparations expressing human melanocortin receptors; 5 h at room temperature
T1 construct: expressed in transfected cells; host or cells: HEK293

hMC-4R [2] = molecular target: T1, hMC-4R; test: Functional assay (membrane based cAMP fluorescence polarization assay, agonistic activity); type: biochemical; conditions: for Emax / % activation functional assay: cAMP produced compared to stimulation with NDP-alpha-MSH; for Emax: read-out: % activation functional assay; for EC50: membrane preparations from HEK293 cells expressing the human melanocortin receptors, cAMP production
Method: Agonistic activity of human melanocortin receptors is determined in a homogeneous membrane based assay.
Membrane preparations from HEK293 cells expressing the human melanocortin receptors are added. After a short preincubation period, an appropriate amount of ATP, GTP and the cAMP antibody is added and the plate is further incubated before the fluorescence labeled cAMP conjugate is dispensed. The plate is incubated for 2 h at 4°C before it is read on a fluorescence polarization microplate reader. The amount of cAMP produced as a response to a test compound is compared to the production of cAMP resulting from stimulation with NDP-alpha-MSH.

T1 sequence (P32245 whole entry): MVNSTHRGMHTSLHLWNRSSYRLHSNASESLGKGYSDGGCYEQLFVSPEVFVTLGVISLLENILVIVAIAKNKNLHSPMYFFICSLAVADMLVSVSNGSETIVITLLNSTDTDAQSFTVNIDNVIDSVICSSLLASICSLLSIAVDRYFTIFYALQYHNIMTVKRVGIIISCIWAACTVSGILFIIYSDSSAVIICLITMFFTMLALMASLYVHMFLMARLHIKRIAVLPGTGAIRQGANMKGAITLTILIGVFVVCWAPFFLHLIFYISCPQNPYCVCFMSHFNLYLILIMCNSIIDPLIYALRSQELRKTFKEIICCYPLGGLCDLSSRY

Row | IC50 (hMC-4R [1]) | Emax (hMC-4R [2]) | EC50 (hMC-4R [2]) | % activation functional assay (hMC-4R [2]) | Structure (SMILES)
1 | 0.29 µM | 89% | 0.64 µM |  | NC(Cc1ccc(Cl)cc1)C(=O)N1CCC(c2ccc(F)cc2CCCN2CCCC2)CC1 (centres unmarked) [Example 114]
2 | 0.26 µM | 73% | 0.11 µM |  | NC(Cc1ccc(Cl)cc1)C(=O)N1CCC(c2cc(F)c(F)cc2OCCN2CCCCC2)CC1 (centres unmarked) [Example 112]
3 | 0.15 µM | 87% | 0.23 µM |  | NC(Cc1ccc(Cl)cc1)C(=O)N1CCC(c2cc(Cl)ccc2OCCN2CCCC2)CC1 (centres unmarked) [Example 106]
4 | 0.19 µM | 73% | 0.28 µM |  | NC(Cc1ccc(Cl)cc1)C(=O)N1CCC(c2ccc(Cl)cc2OCCCN2CCCCC2)CC1 (centres unmarked) [Example 110]
5 | 0.31 µM | 75% | 0.17 µM |  | NC(Cc1ccc(Cl)cc1)C(=O)N1CCC(c2cc(F)c(F)cc2OCCN2CCCC2)CC1 (centres unmarked) [Example 111]
6 | 0.13 µM |  |  | no activation | NC(Cc1ccc(Cl)cc1Cl)C(=O)N1CCC(c2ccccc2OCCN2CCCC2)CC1 (centres unmarked) [Example 1]
7 | 0.028 µM |  |  | no activation | NC(Cc1ccc(Cl)cc1Cl)C(=O)N1CCC(c2ccc(Cl)cc2OCCN2CCCC2)CC1 (centres unmarked) [Example 3]
8 | 0.057 µM | 29% |  |  | NC(Cc1ccc(Cl)cc1Cl)C(=O)N1CCC(c2cc(F)c(F)cc2OCCN2CCCC2)CC1 (centres unmarked) [Example 7]
9 | 0.26 µM | 90% | 0.57 µM |  | NC(Cc1ccc(Cl)cc1)C(=O)N1CCC(c2cc(F)ccc2OCCN2CCCC2)CC1 (centres unmarked) [Example 105]
10 | 0.47 µM | 78% | 1.6 µM |  | NC(Cc1ccc(Cl)cc1)C(=O)N1CCC(c2ccccc2OCCN2CCCC2)CC1 (centres unmarked) [Example 101]
11 | 0.064 µM | 22% |  |  | NC(Cc1ccc(Cl)cc1Cl)C(=O)N1CCC(c2ccc(F)cc2OCCN2CCCC2)CC1 (centres unmarked) [Example 2]
12 | 0.79 µM | 78% | 1.1 µM |  | NC(Cc1ccc(Cl)cc1)C(=O)N1CCC(c2ccccc2CCCN2CCCC2)CC1 (centres unmarked) [Example 113]
